Tests used:
[1] = tested on: ornithine decarboxylase (ODC), TPA induced; assay: Inhibition of TPA-induced ornithine decarboxylase (ODC) activity, essentially the method of Verma & Boutwell; format: biochemical; conditions: concentration attaining 80% inhibition of TPA induced ODC activity
From the text: The retionic acid like activity of these compounds was confirmed through the classic measure of retionic acid activity involving the effects of retionic acid on ornithine decarboxylase. The original work on the correlation between retionic acid and decrease in cell proliferation was done by Verma & Boutwell, Cancer Research, 1977, 37, 2196-2201. That reference discloses that ornithine decarboxylase (ODC) activity increased precedent to polyamine biosynthesis. It has been established elsewhere that increases in polyamine synthesis can be correlated or associated with cellular proliferation. Thus, if ODC activity could be inhibited, cell hyperproliferation could be modulated. Although all causes for ODC activity increase are unknown, it is known that 12-0-tetradecanoylphorbol-13-acetate (TPA) induces ODC activity.
By way of example of retionic acid-like activity it is noted that in the assay conducted essentially in accordance with the method of Verman & Boutwell, ibid, the following examples of compounds made in accordance with the process of the present invention (Compounds 10, 11 and 12) attained an 80% inhibition of TPA induced ODC activity at the following concentrations (IC80): […]

[2] = tested on: ornithine decarboxylase (ODC), TPA induced; conditions: background statement on retinoic acid; Verma & Boutwell, Cancer Research, 1977, 37, 2196-2201; cited from earlier work

Row | SMILES | IC80 conc [1] | inhibition of induction of ODC activity by TPA [2]
1 | CCOC(=O)c1ccc(C#Cc2ccc3c(c2)C(C)(C)CC(C)(C)S3)nc1 [Compound 10] | 0.69 mmols | 
2 | CCOC(=O)c1ccc(C#Cc2ccc3c(c2)C(C)(C)CC(C)(C)O3)nc1 [Compound 11] | 0.13 mmols | 
3 | CCOC(=O)c1ccc(C#Cc2cc3c(cc2C)OC(C)(C)CC3(C)C)nc1 [Compound 12, Ethyl-6-[(2,2,4,4,7-pentamethyl-6-chromanyl)-ethynyl nicotinate] | 0.2 mmols | 
4 | CC1=C(/C=C/C(C)=C/C=C/C(C)=C/C(=O)O)C(C)(C)CCC1 [Retionic acid, retionic acid] |  | inhibits this induction of ODC activity by TPA
